Data from publication PMC9490041, “Determinants of affinity, specificity, and phase separation in a supramodule from Post-synaptic density protein 95” (iScience, 2022).
Where two headings read alike, the source gives them in different places. Ends that are not written are not given here.

Tests used:
PSG F325A (PSD-95) = experiment: FP displacement (competition) of FITC-15 AA CRIPT by library peptide, IC50 and Ki; conditions: for IC50: read-out: IC50 (µM), PSG F325A
PSG G322A (PSD-95) = experiment: as above; conditions: for IC50: read-out: IC50 (µM), PSG G322A; for Ki: read-out: Ki (µM), PSG G322A
PSG (PSD-95) = experiment: as above; conditions: for IC50: read-out: IC50 (µM), PSG
PSG G335A (PSD-95) = experiment: as above; conditions: for IC50: read-out: IC50 (µM), PSG G335A; for Ki: read-out: Ki (µM), PSG G335A
PSG G322A G335A (PSD-95) = experiment: as above; conditions: for IC50: read-out: IC50 (µM), PSG G322A G335A
PDZ3 (PSD-95) = PDZ3 (PSD-95) (Homo sapiens, UniProt P78352); experiment: as above
PDZ1-2 (PSD-95) = experiment: Isothermal titration calorimetry; type: binding; conditions: ITC
[1] = FP displacement of FITC-15 AA CRIPT probe by PSD library peptide, protein PSG G322A
[2] = FP displacement of 5 nM FITC-15 AA CRIPT by non-labeled acetylated peptide, room temperature, Ki from IC50, technical triplicates, PSG
[3] = FP displacement of FITC-15 AA CRIPT probe by PSD library peptide, protein PSG (wild type)
[4] = read-out: Ki (µM), PSG, FP displacement of FITC-15 AA CRIPT probe by PSD library peptide, protein PSG (wild type)
[5] = FP displacement of FITC-15 AA CRIPT probe by PSD library peptide, protein PSG G335A
[6] = FP displacement of FITC-15 AA CRIPT probe by PSD library peptide, protein PSG G322A G335A
[7] = read-out: Ki (µM), PSG G322A G335A, FP displacement of FITC-15 AA CRIPT probe by PSD library peptide, protein PSG G322A G335A
[8] = FP displacement of FITC-15 AA CRIPT probe by acetylated PSD library peptide
[9] = read-out: Ki (µM), PSG, FP displacement of FITC-15 AA CRIPT probe by acetylated PSD library peptide
[10] = FP displacement of FITC-15 AA CRIPT probe by acetylated PSD library peptide (P-13 to P0 plus extra N-terminal Y)
[11] = read-out: Ki (µM), PSG G322A G335A, FP displacement of FITC-15 AA CRIPT probe by acetylated PSD library peptide
[12] = Ki (µM), PDZ3, FP displacement of FITC-15 AA CRIPT probe by acetylated PSD library peptide
[13] = Ki, FP displacement of 5 nM FITC-15 AA CRIPT by non-labeled acetylated peptide, room temperature, Ki from IC50, technical triplicates, PDZ3
[14] = Ki (µM), PDZ3, FP displacement of FITC-15 AA CRIPT probe by PSD library peptide, protein PDZ3
[15] = FP displacement of FITC-15 AA CRIPT probe by library peptide

Sequence of PDZ3 (PSD-95) (P78352 313-393 limits assumed): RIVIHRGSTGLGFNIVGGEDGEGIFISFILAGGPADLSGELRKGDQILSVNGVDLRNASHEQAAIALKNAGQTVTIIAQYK

Row | IC50 (PSG G322A (PSD-95); [1]) [µM] | Ki (PSG G322A (PSD-95); [1]) [µM] | Ki (PSG (PSD-95); [2]) [µM] | IC50 (PSG (PSD-95); [3]) [µM] | Ki (PSG (PSD-95); [4]) [µM] | Ki (PSG G335A (PSD-95); [5]) [µM] | IC50 (PSG G322A G335A (PSD-95); [6]) [µM] | Ki (PSG G322A G335A (PSD-95); [7]) [µM] | Ki (PSG G322A (PSD-95); [8]) [µM] | IC50 (PSG (PSD-95); [8]) [µM] | Ki (PSG (PSD-95); [9]) [µM] | IC50 (PSG G335A (PSD-95); [8]) [µM] | Ki (PSG G335A (PSD-95); [8]) [µM] | IC50 (PSG G322A G335A (PSD-95); [10]) [µM] | Ki (PSG G322A G335A (PSD-95); [11]) [µM] | IC50 (PDZ3 (PSD-95)) [µM] | Ki (PDZ3 (PSD-95); [12]) [µM] | Ki (PDZ3 (PSD-95); [13]) [µM] | IC50 (PSG G322A (PSD-95); [8]) [µM] | Molecule | further results
1 | 3.4 | 1.33 | < 75 | 6 | 2.43 | 0.753 | 2.47 | 0.777 |  |  |  |  |  |  |  |  |  |  |  | CC[C@H](C)[C@H](NC(=O)[C@H](CCCCN)NC(=O)[C@@H]1CCCN1C(=O)[C@H](CC(C)C)NC(=O)[C@H](CCCNC(=N)N)NC(=O)[C@H](Cc1c[nH]cn1)NC(=O)[C@H](CO)NC(=O)CNC(=O)[C@H](CC(=O)O)NC(=O)[C@H](Cc1ccc(O)cc1)NC(C)=O)C(=O)N[C@@H](CCCCN)C(=O)N[C@@H](CCC(=O)O)C(=O)N[C@H](C(=O)N[C@H](C(=O)N[C@H](C(=O)O)C(C)C)[C@@H](C)O)[C@@H](C)O [FRPD4] | IC50 (PSG F325A (PSD-95); FP displacement of FITC-15 AA CRIPT probe by PSD library peptide, protein PSG F325A): 18 µM; Ki (PSG F325A (PSD-95); read-out: Ki (µM), PSG F325A, FP displacement of FITC-15 AA CRIPT probe by PSD library peptide, protein PSG F325A): 9 µM; IC50 (PSG G335A (PSD-95); [5]): 2.55 µM
2 |  |  |  |  |  |  |  |  | 45 | 239 | 101 | 77 | 27 | 63 | 22 | 182 | 75 | < 75 |  | CC(=O)N[C@@H](Cc1ccc(O)cc1)C(=O)N[C@@H](CO)C(=O)N[C@@H](CC(C)C)C(=O)N[C@@H](CO)C(=O)N[C@@H](CCCCN)C(=O)N[C@@H](Cc1c[nH]cn1)C(=O)N[C@@H](CCC(=O)O)C(=O)N[C@@H](CO)C(=O)N[C@@H](CCC(=O)O)C(=O)N[C@@H](Cc1ccc(O)cc1)C(=O)N[C@@H](CC(N)=O)C(=O)N[C@H](C(=O)N[C@H](C(=O)N[C@@H](CCCNC(=N)N)C(=O)N[C@H](C(=O)O)C(C)C)[C@@H](C)O)[C@@H](C)O [NETO1] | 
3 | 56 | 24 | < 75 | 118 | 61 | 9 | 22 | 7.42 |  |  |  |  |  |  |  |  |  | < 75 |  | CC(=O)N[C@@H](Cc1ccc(O)cc1)C(=O)N[C@@H](Cc1c[nH]cn1)C(=O)N1CCC[C@H]1C(=O)N[C@@H](Cc1c[nH]cn1)C(=O)N1CCC[C@H]1C(=O)N[C@@H](Cc1c[nH]cn1)C(=O)N1CCC[C@H]1C(=O)N[C@@H](Cc1c[nH]cn1)C(=O)N[C@@H](CO)C(=O)N[C@@H](Cc1c[nH]cn1)C(=O)N[C@@H](CO)C(=O)N[C@H](C(=O)N[C@H](C(=O)N[C@@H](CCCNC(=N)N)C(=O)N[C@H](C(=O)O)C(C)C)[C@@H](C)O)[C@@H](C)O [NLGN1] | Ki (PDZ3 (PSD-95); [14]): 72 µM
4 |  |  |  |  |  |  |  |  | 31 | 184 | 78 | 39 | 14 | 43 | 15 | 62 | 40 | < 75 | 72 | CC(=O)N[C@@H](Cc1ccc(O)cc1)C(=O)N[C@@H](CC(N)=O)C(=O)N[C@@H](CO)C(=O)N[C@H](C(=O)N[C@@H](CC(N)=O)C(=O)N[C@@H](CC(C)C)C(=O)N1CCC[C@H]1C(=O)N[C@@H](Cc1c[nH]cn1)C(=O)NCC(=O)N[C@@H](Cc1c[nH]cn1)C(=O)N[C@@H](CO)C(=O)N[C@H](C(=O)N[C@H](C(=O)N[C@@H](CCCNC(=N)N)C(=O)N[C@H](C(=O)O)C(C)C)[C@@H](C)O)[C@@H](C)O)[C@@H](C)O [NLGNX] | 
5 | 153 | 66 |  | 463 | 243 | 95 | 156 | 54 |  |  |  |  |  |  |  |  |  |  |  | CC[C@H](C)[C@H](NC(=O)[C@H](CO)NC(=O)[C@@H]1CCCN1C(=O)[C@H](CCSC)NC(=O)[C@H](CCCCN)NC(=O)[C@H](CCCCN)NC(=O)[C@H](Cc1ccc(O)cc1)NC(=O)[C@@H](NC(=O)[C@H](CCCNC(=N)N)NC(=O)[C@H](CCCNC(=N)N)NC(=O)[C@H](Cc1ccc(O)cc1)NC(C)=O)C(C)C)C(=O)N[C@@H](CCC(=O)O)C(=O)N[C@@H](CO)C(=O)N[C@@H](CC(=O)O)C(=O)N[C@H](C(=O)O)C(C)C [NMDE1] | IC50 (PSG G335A (PSD-95); [5]): 267 µM; Ki (PDZ3 (PSD-95); [14]): 172 µM
6 |  |  |  |  |  |  |  |  | 57 | 427 | 181 | 233 | 83 | 76 | 26 | 67 | 27 | < 75 | 133 | CC[C@H](C)[C@H](NC(=O)[C@@H]1CCCN1C(=O)[C@H](Cc1ccc(O)cc1)NC(C)=O)C(=O)NCC(=O)NCC(=O)N[C@@H](CO)C(=O)N[C@@H](CC(C)C)C(=O)N[C@@H](CC(N)=O)C(=O)N[C@@H](CO)C(=O)N[C@H](C(=O)N[C@H](C(=O)N[C@@H](CC(=O)O)C(=O)N[C@@H](CO)C(=O)N[C@@H](C)C(=O)N[C@@H](CC(C)C)C(=O)O)[C@@H](C)O)[C@@H](C)O [RGS14] | 
7 |  |  | < 75 |  |  |  |  |  | 0.4 | 4.24 | 0.913 | 1.12 | 0.24 | 0.922 | 0.243 |  |  |  | 1.31 | CC(=O)N[C@@H](Cc1ccc(O)cc1)C(=O)N[C@@H](CCC(N)=O)C(=O)N[C@@H](CCCNC(=N)N)C(=O)NCC(=O)N[C@@H](CO)C(=O)N[C@@H](Cc1ccccc1)C(=O)N1CCC[C@H]1C(=O)N1CCC[C@H]1C(=O)N[C@@H](Cc1c[nH]c2ccccc12)C(=O)N[C@H](C(=O)N[C@@H](CCC(N)=O)C(=O)N[C@@H](CCC(N)=O)C(=O)N[C@H](C(=O)N[C@@H](CCCNC(=N)N)C(=O)N[C@H](C(=O)O)C(C)C)[C@@H](C)O)C(C)C [SYNGAP⍺1] | IC50 (PSG F325A (PSD-95); [8]): 8 µM
8 |  |  | < 75 |  |  |  |  |  | 9 | 67 | 28 | 24 | 8.45 | 12 | 4 | 58 | 23 | < 75 | 21 | CC[C@H](C)[C@H](NC(=O)[C@H](Cc1ccccc1)NC(=O)[C@H](CO)NC(=O)[C@H](CCCNC(=N)N)NC(=O)[C@H](CCCCN)NC(=O)[C@@H]1CCCN1C(=O)[C@H](CCCCN)NC(=O)[C@H](C)NC(=O)[C@H](C)NC(=O)[C@@H](NC(=O)[C@H](Cc1ccc(O)cc1)NC(C)=O)[C@@H](C)O)C(=O)N[C@@H](CCC(=O)O)C(=O)N[C@@H](CO)C(=O)N[C@@H](CC(N)=O)C(=O)N[C@H](C(=O)O)C(C)C [TANC1] | 
9 |  |  |  |  |  |  |  |  |  |  |  |  |  |  |  | 333 |  |  |  | Ac-YSSPAQSVTPVQTVV [MTMR2] | IC50 (PSG G322A (PSD-95); [15]): 295 µM; IC50 (PSG (PSD-95); [15]): 271 µM; Ki (PSG (PSD-95); read-out: Ki (µM), PSG, FP displacement of FITC-15 AA CRIPT probe by library peptide): 115 µM; IC50 (PSG G335A (PSD-95); [15]): 277 µM; Ki (PSG G335A (PSD-95); [15]): 99 µM; Ki (PSG G322A G335A (PSD-95); FP displacement of 5 nM FITC-15 AA CRIPT by non-labeled acetylated peptide, room temperature, Ki from IC50, PSG G322A G335A): 95 µM; Ki (PDZ3 (PSD-95); Ki (µM), PDZ3, FP displacement of FITC-15 AA CRIPT probe by library peptide): 139 µM
10 |  |  |  |  |  |  |  |  |  |  |  |  |  |  |  |  |  |  |  | FL CC ADGRB1: expressed full-length coiled-coil C-terminal part of ADGRB1, residues 1,471–1,584 | Higher affinity for PDZ1-2 in comparison with PSG WT (PDZ1-2 (PSD-95)): 3 fold
